Test results as given in patent US7034016B2, “8-phenyl-6,9-dihydro-[1,2,4]triazolo[3,4-i]purin-5-one derivatives” (Almirall Prodesfarma, S.A., priority 1999, dated 2006).

What follows are molecules tested against T1, cyclic GMP specific phosphodiesterase (PDE 5) (Homo sapiens, UniProt O76074) (assay: PDE 5 inhibitory activity (enzyme isolated from human platelet lysates, [3H]-cyclic GMP substrate)). Conditions: PDE 5 from human platelet lysates; 0.25 mM [3H]-cyclic GMP as substrate.
T1 construct: isolated from human platelet lysates by ion exchange chromatography using a Mono-Q column; from tissue; host or cells: human platelets (lysate, Mono-Q ion exchange fraction)
Format: biochemical
Description: The cyclic GMP specific phosphodiesterase (PDE 5) was isolated from human platelet lysates by ion exchange chromatography using a Mono-Q column. The enzyme activity was determined using 0.25 mM [3H]-cyclic GMP as substrate. The purification of the enzyme and the assessment of the PDE 5 inhibitory activity of our compounds were performed essentially as described by Gristwood et al., Br. J. Pharmacol. 1992, 105, 985–991.

Molecule | IC50 [nM]
8-[5-(4-Methyl-[1,4]diazepane-1-sulfonyl)-2-propoxyphenyl]-6-propyl-6,9-dihydro-[1,2,4]triazolo[3,4-i]purin,5-one [Example 22] | 3.7
CCCOc1ccc(S(=O)(=O)N2CCN(C)CC2)cc1-c1nc2c([nH]1)c1nncn1c(=O)n2CC [Example 4, 6-Ethyl-8-[5-(4-methylpiperazine-1-sulphonyl)-2-propoxyphenyl]-6,9-dihydro-[1,2,4]triazolo[3,4-i]purin-5-one] | 11
CCCCOc1ccc(S(=O)(=O)N2CCN(C)CC2)cc1-c1nc2c([nH]1)c1nncn1c(=O)n2CC [Example 6] | 13
CCCOc1ccc(S(=O)(=O)Nc2ccncc2)cc1-c1nc2c([nH]1)c1nncn1c(=O)n2CCC [Example 17, 3-(5-Oxo-6-propyl-6,9-dihydro-5H-[1,2,4]triazolo[3,4-i]purin-8-yl)-4-propoxy-N-pyridin-4-yl-benzenesulphonamide] | 1.5
CCCOc1ccc(S(=O)(=O)N2CCN(C)CC2)cc1-c1nc2c([nH]1)c1nncn1c(=O)n2CCC [Example 18, 8-[5-(4-Methylpiperazinosulphonyl)-2-propoxyphenyl]-6-propyl-6,9-dihydro-[1,2,4]triazolo[3,4-i]purin-5-one] | 14
CCCOc1ccc(S(=O)(=O)N2CCN(CCO)CC2)cc1-c1nc2c([nH]1)c1nncn1c(=O)n2CCC [Example 27, 8-{5-[4-(2-Hydroxyethyl)piperazine-1-sulphonyl]-2-propoxyphenyl}-6-propyl-6,9-dihydro-[1,2,4]triazolo[3,4-i]purin-5-one] | 4
CCCCn1c(=O)n2cnnc2c2[nH]c(-c3cc(S(=O)(=O)N4CCN(CCO)CC4)ccc3OCCC)nc21 [Example 43, 6-Butyl-8-(2-propoxy-5-[4-(2-hydroxyethyl)piperazine-1-sulphonyl]phenyl}-6,9-dihydro[1,2,4]triazolo[3,4-i]purin-5-one] | 4
CCCOc1ccc(S(=O)(=O)N2CCN(C(C)(C)CO)CC2)cc1-c1nc2c([nH]1)c1nncn1c(=O)n2CCC [Example 108, 8-{5-[4-(2-Hydroxy-1,1-dimethylethyl)piperazine-1-sulfonyl]-2-propoxyphenyl}-6-propyl-6,9-dihydro-[1,2,4]triazolo[3,4-i]purin-5-one] | 1.6

Now those with a lower IC50, led by results:

IC50 [nM] | Molecule
1.4 | CCCOc1ccc(S(=O)(=O)N2CCN[C@@H](C)C2)cc1-c1nc2c([nH]1)c1nncn1c(=O)n2CCC [Example 86, 8-[5-((S)-3-Methylpiperazine-1-sulfonyl)-2-propoxyphenyl]-6-propyl-6,9-dihydro-[1,2,4]triazolo[3,4-i]purin-5-one]
0.51 | CCCOc1ccc(S(=O)(=O)N2C[C@@H]3C[C@H]2CN3C)cc1-c1nc2c([nH]1)c1nncn1c(=O)n2CCC [Example 89, 8-[5-((1S,4S)-5-Methyl-2,5-diazabicyclo[2.2.1]heptane-2-sulfonyl)-2-propoxyphenyl]-6-propyl-6,9-dihydro-[1,2,4]triazolo[3,4-i]purin-5-one]
0.97 | CCCOc1ccc(S(=O)(=O)N2CC(CN(C)C)C2)cc1-c1nc2c([nH]1)c1nncn1c(=O)n2CCC [Example 91, 8-[5-(3-Dimethylaminomethylazetidine-1-sulfonyl)-2-propoxyphenyl]-6-propyl-6,9-dihydro-[1,2,4]triazolo[3,4-i]purin-5-one]
0.85 | CCCOc1ccc(S(=O)(=O)N2C[C@@H](C)N[C@@H](C)C2)cc1-c1nc2c([nH]1)c1nncn1c(=O)n2CCC [Example 93, 8-[5-((3R,5S)-3,5-Dimethylpiperazine-1-sulfonyl)-2-propoxyphenyl]-6-propyl-6,9-dihydro-[1,2,4]triazolo[3,4-i]purin-5-one]
0.34 | CCCOc1ccc(S(=O)(=O)N2CCCN(CCO)CC2)cc1-c1nc2c([nH]1)c1nncn1c(=O)n2CCC [Example 105, 8-{5-[4-(2-Hydroxyethyl)-[1,4]diazepane-1-sulfonyl]-2-propoxyphenyl}-6-propyl-6,9-dihydro-[1,2,4]triazolo[3,4-i]purin-5-one]
0.84 | CCCCn1c(=O)n2cnnc2c2[nH]c(-c3cc(S(=O)(=O)N4CCN(C(C)(C)CO)CC4)ccc3OCCC)nc21 [Example 138, 6-Butyl-8-{5-[4-(2-hydroxy-1,1-dimethylethyl)piperazine-1-sulfonyl]-2-propoxyphenyl}-6,9-dihydro-[1,2,4]triazolo[3,4-i]purin-5-one]
0.54 | N-(3-Dimethylamino-2,2-dimethylpropyl)-3-(oxopropyl-6,9-dihydro-5H-[1,2,4]triazolo[3,4-i]purin-8-yl)-4-propoxybenzenesulfonamide [Example 101]
